In patent US11547112B2, “Solvents for agricultural applications and pesticide formulations” (Dow Global Technologies LLC, priority 2017, dated 2023):

Assay: Solubility of pesticides in solvents (stepwise 2% increments of pesticide powder)
Settings: highest concentration still dissolved, no more than 2% lower than actual solubility; for Solubility in Comparative Solvent B: solvent: diethylene glycol monoethyl ether; for Solubility in Comparative Solvent A: solvent: dimethyl sulfoxide (DMSO); for Solubility in Comparative Solvent C: solvent: ethyl 3-ethoxypropionate
Experimental: The solubility of various pesticides in these solvents are evaluated.
Each pesticide powder is added by solvent in 2% stepwise increments to the final pesticide concentration. Each pesticide reaches a concentration where the pesticide powder is not dissolved by the solvent.

Structure (SMILES) | Solubility in Comparative Solvent B | Solubility in Comparative Solvent A | Solubility in Comparative Solvent C
CCCCC(C#N)(Cn1cncn1)c1ccc(Cl)cc1 (stereo not drawn) [Myclobutanil] | 46.0 weight % | 56.7 weight % | 39.0 weight %
COC(=O)N(OC)c1ccccc1COc1ccn(-c2ccc(Cl)cc2)n1 [Pyraclostrobin] | 33.0 weight % | 40.0 weight % | 47.0 weight %
CC(C)(C)C(O)(CCc1ccc(Cl)cc1)Cn1cncn1 (stereo not drawn) [Tebuconazole] | 26.5 weight % | 32.3 weight % | 16.0 weight %
CC(C)(C)C(=O)C(Oc1ccc(Cl)cc1)n1cncn1 (stereo not drawn) [Triazolone] | 35.7 weight % | 43.3 weight % | 32.0 weight %
